Experimental data: PubChem BioAssay (NCI)
“And” between values parts separate entries of the source, which are not always exact repeats. Equal entries are not always repeated.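 Tested at 5 concentrations; 48 h exposure; 96-well plates; endpoints linearly interpolated, else capped at highest concentration. The concentration for 50% growth inhibition is given as GI50. TGI marks complete inhibition of growth.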

How the values were obtained:
Assay in all cases: DTP human tumour cell line panel, 48 h
RPMI-8226 leukemia = system: RPMI-8226 leukemia
IGROV1 ovarian = system: IGROV1 ovarian
SNB-19 CNS = system: SNB-19 CNS
OVCAR-3 ovarian = system: OVCAR-3 ovarian
CAKI-1 renal = system: CAKI-1 renal
EKVX NSCLC = system: EKVX NSCLC
SK-OV-3 ovarian = system: SK-OV-3 ovarian
HOP-62 NSCLC = system: HOP-62 NSCLC
DU-145 prostate = system: DU-145 prostate
HS 578T breast = system: HS 578T breast

## COc1cc(C2c3cc4c(cc3[C@@H](Nc3ccc(N)cc3)C3COC(=O)[C@H]23)OCO4)cc(OC)c1O (stereo not given in full)
RPMI-8226 leukemia
  TGI: 12 µM
IGROV1 ovarian
  TGI: 16.4 µM
SNB-19 CNS
  GI50: 0.555 µM
  TGI: 17.3 µM
OVCAR-3 ovarian
  TGI: 20 µM
CAKI-1 renal
  GI50: 0.326 µM
  TGI: 0.903 µM and 5.93 µM
EKVX NSCLC
  GI50: 0.953 µM
  TGI: 10.9 µM
SK-OV-3 ovarian
  GI50: 0.805 µM
  TGI: 17.3 µM
HOP-62 NSCLC
  TGI: 0.865 µM and 2.5 µM

## Nc1nc(N)c(-c2ccccc2)c(CCC(=O)Nc2ccc(Cl)cc2)n1
RPMI-8226 leukemia
  TGI: > 100 µM
IGROV1 ovarian
  TGI: > 100 µM
SNB-19 CNS
  TGI: > 100 µM
OVCAR-3 ovarian
  TGI: > 100 µM
CAKI-1 renal
  TGI: > 100 µM
EKVX NSCLC
  TGI: > 100 µM
SK-OV-3 ovarian
  TGI: > 100 µM
HOP-62 NSCLC
  TGI: > 100 µM

## CCOC(=O)/N=c1/nc(N(C)C)ss1
RPMI-8226 leukemia
  TGI: > 100 µM
IGROV1 ovarian
  TGI: > 100 µM
SNB-19 CNS
  TGI: > 100 µM
CAKI-1 renal
  TGI: > 100 µM
EKVX NSCLC
  TGI: > 100 µM
SK-OV-3 ovarian
  TGI: > 100 µM
HOP-62 NSCLC
  TGI: > 100 µM

## NCP(=O)(O)OCC(=O)O
IGROV1 ovarian
  TGI: > 100 µM
SNB-19 CNS
  TGI: > 100 µM
OVCAR-3 ovarian
  TGI: > 100 µM
CAKI-1 renal
  TGI: > 100 µM
EKVX NSCLC
  TGI: > 100 µM
SK-OV-3 ovarian
  TGI: > 100 µM
HOP-62 NSCLC
  TGI: > 100 µM

## NS(=O)(=O)c1ccc(NC(=O)COC(=O)c2cccc3c(=O)c4ccccc4[nH]c23)cc1
RPMI-8226 leukemia
  TGI: > 100 µM
IGROV1 ovarian
  TGI: 61.5 µM
SNB-19 CNS
  TGI: 45.2 µM
OVCAR-3 ovarian
  TGI: 47.6 µM
CAKI-1 renal
  TGI: > 100 µM
EKVX NSCLC
  TGI: > 100 µM
SK-OV-3 ovarian
  TGI: 43.3 µM
HOP-62 NSCLC
  TGI: 40.2 µM

## Cc1ncc([N+](=O)[O-])n1CCNC(=O)CCCCCn1ccnc1[N+](=O)[O-]
IGROV1 ovarian
  TGI: > 100 µM
SNB-19 CNS
  TGI: > 100 µM
OVCAR-3 ovarian
  TGI: > 100 µM
CAKI-1 renal
  TGI: > 100 µM
DU-145 prostate
  TGI: > 100 µM
SK-OV-3 ovarian
  TGI: > 100 µM
HS 578T breast
  TGI: > 100 µM
HOP-62 NSCLC
  TGI: > 100 µM

## N#Cc1cccc(OCc2ccccc2COc2cccc(C#N)c2)c1
RPMI-8226 leukemia
  GI50: 15 µM
  TGI: 59.1 µM
IGROV1 ovarian
  GI50: > 100 µM
  TGI: > 100 µM
SNB-19 CNS
  GI50: > 100 µM
  TGI: > 100 µM
CAKI-1 renal
  GI50: 11.1 µM
  TGI: 25.1 µM
EKVX NSCLC
  GI50: 28.3 µM
  TGI: 69.2 µM
DU-145 prostate
  GI50: 25.9 µM
  TGI: 99.1 µM
SK-OV-3 ovarian
  GI50: 35.7 µM
  TGI: > 100 µM
HS 578T breast
  GI50: 30.9 µM
  TGI: 70.5 µM

## COC(=O)C1CC(C(=O)OC)c2nc3cc(C)c(C)cc3nc21 (stereo not given)
RPMI-8226 leukemia
  TGI: > 100 µM
IGROV1 ovarian
  TGI: > 100 µM
SNB-19 CNS
  TGI: > 100 µM
OVCAR-3 ovarian
  TGI: > 100 µM
CAKI-1 renal
  TGI: > 100 µM
EKVX NSCLC
  TGI: > 100 µM
SK-OV-3 ovarian
  TGI: > 100 µM
HOP-62 NSCLC
  TGI: > 100 µM

## C#CCN(Cc1nc2cc(C(F)(F)F)ccc2nc1-c1ccccc1)c1ccc(F)c(F)c1
RPMI-8226 leukemia
  GI50: 22.1 µM
  TGI: 82.7 µM
IGROV1 ovarian
  GI50: 68.1 µM
  TGI: > 100 µM
SNB-19 CNS
  GI50: 92.5 µM
  TGI: > 100 µM
OVCAR-3 ovarian
  GI50: 13.9 µM
  TGI: 61.8 µM
EKVX NSCLC
  GI50: 17 µM
  TGI: 57.2 µM
DU-145 prostate
  GI50: 37.3 µM
  TGI: > 100 µM
SK-OV-3 ovarian
  GI50: > 100 µM
  TGI: > 100 µM
HS 578T breast
  GI50: 45.5 µM
  TGI: > 100 µM
HOP-62 NSCLC
  GI50: > 100 µM
  TGI: > 100 µM

## Cn1cc(NC(=O)c2cc(NC(=O)CCCCCCC(=O)Nc3cc(C(=O)Nc4cc(C(=O)NCCC(=N)N)n(C)c4)n(C)c3)cn2C)cc1C(=O)NCCC(=N)N
IGROV1 ovarian
  TGI: 12.8 µM
SNB-19 CNS
  TGI: > 100 µM
OVCAR-3 ovarian
  TGI: 50.6 µM
CAKI-1 renal
  TGI: 89.7 µM
EKVX NSCLC
  TGI: > 100 µM
SK-OV-3 ovarian
  TGI: > 100 µM

## COc1ccc2c(c1)OCCC1=C2SCC2(C)CCN=C12 (stereo not given)
RPMI-8226 leukemia
  TGI: > 100 µM
IGROV1 ovarian
  TGI: > 100 µM
SNB-19 CNS
  TGI: > 100 µM
OVCAR-3 ovarian
  TGI: > 100 µM
SK-OV-3 ovarian
  TGI: > 100 µM
HOP-62 NSCLC
  TGI: > 100 µM

## CC1=C(C(=O)Nc2ccccc2)C(c2ccc(C(C)C)cc2)C(C(=O)Nc2ccccc2)=C(C)N1
RPMI-8226 leukemia
  TGI: 29.8 µM
IGROV1 ovarian
  TGI: > 100 µM
SNB-19 CNS
  TGI: > 100 µM
OVCAR-3 ovarian
  TGI: 56.3 µM
CAKI-1 renal
  TGI: > 100 µM
EKVX NSCLC
  TGI: > 88 µM
SK-OV-3 ovarian
  TGI: 82.9 µM
HOP-62 NSCLC
  TGI: 85.7 µM

## Nc1ccc(C(=O)N/C(=C\c2cccc([N+](=O)[O-])c2)c2nc3c4c(ccc3[nH]2)C(=O)c2ccccc2C4=O)cc1
RPMI-8226 leukemia
  TGI: > 100 µM
IGROV1 ovarian
  TGI: > 100 µM
SNB-19 CNS
  TGI: > 100 µM
OVCAR-3 ovarian
  TGI: > 100 µM
CAKI-1 renal
  TGI: > 100 µM
EKVX NSCLC
  TGI: > 100 µM
SK-OV-3 ovarian
  TGI: > 100 µM
HOP-62 NSCLC
  TGI: > 100 µM

## COc1cc(-c2nn(-c3ccc(NC(=O)c4cc(Cl)cc(Cl)c4)cc3)cc2-c2ccncc2)ccc1Cl
IGROV1 ovarian
  GI50: > 100 µM
  TGI: > 100 µM
SNB-19 CNS
  GI50: > 100 µM
  TGI: > 100 µM
OVCAR-3 ovarian
  GI50: > 100 µM
  TGI: > 100 µM
CAKI-1 renal
  GI50: > 100 µM
  TGI: > 100 µM
EKVX NSCLC
  GI50: > 100 µM
  TGI: > 100 µM
DU-145 prostate
  GI50: > 100 µM
  TGI: > 100 µM
SK-OV-3 ovarian
  GI50: > 100 µM
  TGI: > 100 µM
HS 578T breast
  GI50: 3.29 µM
  TGI: > 100 µM
HOP-62 NSCLC
  GI50: 32 µM
  TGI: > 100 µM

## CCOc1cc(C(C)(C)C)ccc1C1=N[C@@](C)(c2ccc(Cl)cc2)[C@@](C)(c2ccc(Cl)cc2)N1C(=O)N1CCN(CCS(C)(=O)=O)CC1
RPMI-8226 leukemia
  GI50: 2.49 µM
  TGI: 6.77 µM
IGROV1 ovarian
  GI50: 1.49 µM
  TGI: 6.54 µM
SNB-19 CNS
  GI50: 4.4 µM
  TGI: 23.2 µM
OVCAR-3 ovarian
  GI50: 3.14 µM
  TGI: 9.33 µM
CAKI-1 renal
  GI50: 0.81 µM
  TGI: 6.48 µM
DU-145 prostate
  GI50: 4.85 µM
  TGI: 16.1 µM
SK-OV-3 ovarian
  GI50: 4.32 µM
  TGI: 16.1 µM
HS 578T breast
  GI50: 4.1 µM
  TGI: 23.9 µM
HOP-62 NSCLC
  GI50: 2.86 µM
  TGI: 8.57 µM

## Cn1ccnc1C[N-]Cc1nccn1C.O=[N+]([O-])[O-].O=[N+]([O-])[O-].[Cu+2]
RPMI-8226 leukemia
  GI50: > 100 µM
  TGI: > 100 µM
IGROV1 ovarian
  GI50: > 100 µM
  TGI: > 100 µM
SNB-19 CNS
  GI50: > 100 µM
  TGI: > 100 µM
OVCAR-3 ovarian
  GI50: > 100 µM
  TGI: > 100 µM
EKVX NSCLC
  GI50: > 100 µM
  TGI: > 100 µM
SK-OV-3 ovarian
  GI50: > 100 µM
  TGI: > 100 µM
HOP-62 NSCLC
  GI50: > 100 µM
  TGI: > 100 µM

## C1C[OH+]CC[OH+]CC[OH+]CC[OH+]CC[OH+]CC[OH+]1.[Cl-].[Nb+5]
RPMI-8226 leukemia
  GI50: > 100 µM
  TGI: > 100 µM
IGROV1 ovarian
  GI50: > 100 µM
  TGI: > 100 µM
SNB-19 CNS
  GI50: > 100 µM
  TGI: > 100 µM
OVCAR-3 ovarian
  GI50: > 100 µM
  TGI: > 100 µM
CAKI-1 renal
  GI50: > 100 µM
  TGI: > 100 µM
SK-OV-3 ovarian
  GI50: > 100 µM
  TGI: > 100 µM
HOP-62 NSCLC
  GI50: > 100 µM
  TGI: > 100 µM

## COc1ccc(NC(=O)/C=C(C)/C=C/C=C(C)\C=C\C2=C(C)CCCC2(C)C)cc1
RPMI-8226 leukemia
  GI50: 1.71 µM
  TGI: 64.4 µM
IGROV1 ovarian
  GI50: 54.3 µM
  TGI: > 100 µM
SNB-19 CNS
  GI50: > 100 µM
  TGI: > 100 µM
OVCAR-3 ovarian
  GI50: 70.4 µM
  TGI: > 100 µM
EKVX NSCLC
  GI50: 79 µM
  TGI: > 100 µM
DU-145 prostate
  GI50: > 100 µM
  TGI: > 100 µM
SK-OV-3 ovarian
  GI50: > 100 µM
  TGI: > 100 µM
HS 578T breast
  GI50: 9.02 µM
  TGI: 96.7 µM
HOP-62 NSCLC
  GI50: > 100 µM
  TGI: > 100 µM

## CC(C)(C)OC(=O)N1N=NC2C3OC(CC3=O)C21 (stereo not given)
RPMI-8226 leukemia
  TGI: > 100 µM
IGROV1 ovarian
  TGI: > 100 µM
SNB-19 CNS
  TGI: > 100 µM
OVCAR-3 ovarian
  TGI: > 100 µM
CAKI-1 renal
  TGI: > 100 µM
EKVX NSCLC
  TGI: > 100 µM
SK-OV-3 ovarian
  TGI: > 100 µM
HOP-62 NSCLC
  TGI: > 100 µM
